Drawing on PMC6222614, “Disubstituted 4-Chloro-3-nitrophenylthiourea Derivatives: Antimicrobial and Cytotoxic Studies” (Molecules : A Journal of Synthetic Chemistry and Natural …, 2018), this text covers CC50 and EC50 for 20 molecules.

Like-named read-outs stand apart in the source and are kept apart here. A value given as a limit tells only on which side of the number the result lay.

One series has as its system SK-MEL-28. In words: Antiproliferative assay (MTT). Format: cell-based, human. As to conditions: skin melanoma, concentration reducing cell proliferation by 50%, 96 h. How it is done:
(§1) Cell lines derived from human solid tumors were: Skin melanoma (SK-MEL-28); prostate carcinoma (DU-145). Normal tissues foreskin fibroblasts (CRL-7065) were also used. Cells were seeded at 1 × 10^5 cells/mL in 96 well plates in specific media supplemented with 10% FCS and antibiotics, as above. Cell cultures were then incubated at 37 °C in a humidified, 5% CO2 atmosphere in the absence or presence of serial dilutions of test compounds. Cell viability was determined after 96 h at 37 °C by the MTT method.

The test system of another series is DU145. In words: Antiproliferative assay (MTT). Particulars: prostate carcinoma, concentration reducing cell proliferation by 50%, 96 h. It is filed as cell-based, human. How it is done:
as §1

Another series concerns CCRF-SB. In words: Antiproliferative assay (MTT). Format: cell-based, human. As to conditions: concentration reducing cell proliferation by 50%, 96 h, mean of three determinations. How it is done: (§2) Cell lines derived from human hematological tumors were: CD4+ human T-cells containing an integrated HTLV-1 genome (MT-4); CD4+ human acute T-lymphoblastic leukemia (CCRF-CEM); human splenic B-lymphoblastoid cells (WIL-2NS); human acute B-lymphoblastic leukemia (CCRF-SB). Cells were seeded at an initial density of 1 × 10^5 cells/mL in 96 well plates in RPMI-1640 medium supplemented with 10% fetal calf serum (FCS), 100 units/mL penicillin G and 100 μg/mL streptomycin.
as §1

A further series has as its system MT-4. In words: Antiproliferative assay (MTT). It is filed as cell-based, human. Particulars: concentration reducing cell proliferation by 50%, 96 h, mean of three determinations. Here is the method: as §2, §1
The subject of another series is WIL-2NS. The series can be described thus: Antiproliferative assay (MTT). As to conditions: concentration reducing cell proliferation by 50%, 96 h, mean of three determinations. Format: cell-based, human. Here is the method:
as §2, §1

For another series, the system named is CCRF-CEM. In words: Antiproliferative assay (MTT). It is filed as cell-based, human. As to conditions: concentration reducing cell proliferation by 50%, 96 h, mean of three determinations. Here is the method:
as §2, §1

The next series has as its system CRL7065. The series can be described thus: Antiproliferative assay (MTT), normal cell line. Format: cell-based, human. Particulars: normal foreskin fibroblasts, concentration reducing cell proliferation by 50%, 96 h. How it is done: as §1
A further series deals with MT-4 cells. The series can be described thus: Cytotoxicity against mock-infected MT-4 cells (MTT). It is filed as cell-based, human. Particulars: concentration reducing viability of mock-infected MT-4 cells by 50%, 96 h. Here is the method:
(§3) Cell line supporting the multiplication of Human Immunodeficiency Virus type-1 (HIV-1) was the CD4+ human T-cells, derived from human hematological tumors, containing an integrated HTLV-1 genome (MT-4). Cells were purchased from American Type Culture Collection (ATCC). Human Immunodeficiency Virus type-1 (HIV-1) IIIB laboratory strain was obtained from the supernatant of the persistently infected H9/IIIB cells (NIH 1983).
(§4) Exponentially growing MT-4 cells were seeded at an initial density of 1 × 10^5 cells/mL in 96-well plates in RPMI-1640 medium, supplemented with 10% fetal bovine serum (FBS), 100 units/mL penicillin G and 100 μg/mL streptomycin. Cell cultures were then incubated at 37 °C in a humidified, 5% CO2 atmosphere, in the absence or presence of serial dilutions of tested compounds. Cell viability was determined after 96 h at 37 °C by the 3-(4,5-dimethylthiazol-2-yl)-2,5-diphenyl-tetrazolium bromide (MTT) method.

For another series, the system named is HIV-1 IIIB. In words: Anti-HIV-1 activity: protection of MT-4 cells from virus-induced cytopathogenicity (MTT). Particulars: 50% protection of MT-4 cells from HIV-1 induced cytopathogenicity, MTT, 4-day incubation, read-out: HIV-1IIIB EC50. It is filed as cell-based, Human Immunodeficiency Virus type-1.
Excerpt: as §3
The activity of compounds against HIV-1 was based on inhibition of virus-induced cytopathogenicity in MT-4 cell acutely infected with a multiplicity of infection (m.o.i.) of 0.01. Briefly, 50 μL of RPMI containing 1 × 10^4 MT-4 cells were added to each well of flat-bottom microtiter trays, containing 50 μL of RPMI without or with serial dilutions of test compounds. Then, 20 μL of a HIV-1 suspension containing 100 CCID50 were added. After a 4-day incubation at 37 °C, cell viability was determined by the MTT method.
For orientation: Damage to the host cells serves as the signal in cytopathic effect assays.

Series [1] in a line: Cytotoxicity against mock-infected MT-4 cells (MTT). It is filed as cell-based, human. Particulars: human, concentration reducing viability of mock-infected MT-4 cells by 50%. Here is the method: as §3, §4

As to `CC[C@@]1(O)C(=O)OCc2c1cc1n(c2=O)Cc2cc3ccccc3nc2-1` [Camptotecin, reference compound], the half-maximal cytotoxic concentration (CC50) (in general, the concentration giving 50% cytotoxicity) with SK-MEL-28 turned out to be 0.07 µM; with DU145 it was 0.08 µM; in the series with CCRF-SB it was 0.004 µM; in the series on MT-4, 0.004 µM; in the series on WIL-2NS it was 0.005 µM; with CCRF-CEM it was 0.003 µM. In addition, in the series on CRL7065, the cytotoxic concentration (CC50) was 0.3 µM.
For `O=[N+]([O-])c1cc(NC(=S)Nc2ccccc2Cl)ccc1Cl` [Compound 1], the 50% cytotoxic concentration (CC50) came out at 8.8 µM in the series with MT-4 cells; 8.7 µM in the series on SK-MEL-28; 7.6 µM in the series with DU145; 14 µM in the series on CCRF-SB; 8.8 µM in the series on MT-4; 14 µM in the series on WIL-2NS. The figures for the CC50 in the series on CCRF-CEM and with CRL7065 were 13 µM and 18 µM, respectively. Also, the 50% effective concentration (EC50) – broadly, the concentration that produces a half-maximal response – with HIV-1 IIIB was over 8.8 µM.
`O=[N+]([O-])c1cc(NC(=S)Nc2cccc(Cl)c2)ccc1Cl` [Compound 2]: the CC50 in the series with MT-4 cells was 7 µM. In addition, the EC50 in the series on HIV-1 IIIB is over 7 µM.
The corresponding values for `O=[N+]([O-])c1cc(NC(=S)Nc2ccc(Cl)cc2)ccc1Cl` [Compound 3] are 7 µM and over 7 µM.
For the molecule `O=[N+]([O-])c1cc(NC(=S)Nc2ccccc2Br)ccc1Cl` [Compound 4], the CC50 in the series with MT-4 cells came to 9.6 µM; in the series on SK-MEL-28 it was 15 µM; with DU145 it was 8 µM; in the series with CCRF-SB, 22 µM; in the series on MT-4 it was 9.6 µM; in the series with WIL-2NS it was 30 µM. Further, the CC50 in the series on CCRF-CEM was 22 µM; in the series with CRL7065, 20 µM.
On to `O=[N+]([O-])c1cc(NC(=S)Nc2cccc(Br)c2)ccc1Cl` [Compound 5], for which, in the series with MT-4 cells, it took 8 µM to reach half-maximal cytotoxicity (CC50). The EC50 in the series on HIV-1 IIIB was over 8 µM.
`O=[N+]([O-])c1cc(NC(=S)Nc2ccc(Br)cc2)ccc1Cl` [Compound 6]: the cytotoxic concentration (CC50) in the series on MT-4 cells was 6.6 µM; in the series on SK-MEL-28 it was 6 µM; in the series with DU145, 6 µM; in the series on CCRF-SB, 8 µM; in the series with MT-4 it was 6.6 µM; in the series with WIL-2NS it was 7 µM. The CC50 was determined as 6 µM with CCRF-CEM and 30 µM with CRL7065. Also, the EC50 in the series on HIV-1 IIIB was over 6.6 µM.
The molecule `O=[N+]([O-])c1cc(NC(=S)Nc2ccccc2F)ccc1Cl` [Compound 7] came in with a cytotoxic concentration (CC50) with MT-4 cells of 13 µM. The EC50 in the series on HIV-1 IIIB was over 13 µM.
The molecule `O=[N+]([O-])c1cc(NC(=S)Nc2cccc(F)c2)ccc1Cl` [Compound 8] yielded a CC50 with MT-4 cells of 9 µM. Besides, the EC50 in the series with HIV-1 IIIB is over 9 µM.
`O=[N+]([O-])c1cc(NC(=S)Nc2ccc(F)cc2)ccc1Cl` [Compound 9]: the CC50 in the series with MT-4 cells was found to be 7 µM; with SK-MEL-28, 20 µM; in the series with DU145, 8.4 µM; in the series with CCRF-SB it was 9.4 µM; in the series on MT-4, 7 µM; in the series on WIL-2NS it was 11 µM. The CC50 came out at 9.1 µM with CCRF-CEM and 22 µM in the series on CRL7065. In the series on HIV-1 IIIB, the concentration giving a half-maximal response (EC50) is over 7 µM.
Turning to `O=[N+]([O-])c1cc(NC(=S)Nc2ccc(F)c(Cl)c2)ccc1Cl` [Compound 10], the CC50 came to 7.3 µM with MT-4 cells; 6.6 µM in the series on SK-MEL-28; 6.5 µM in the series on DU145; 8.8 µM with CCRF-SB; 7.3 µM in the series with MT-4; 7 µM in the series on WIL-2NS. Further, the half-maximal cytotoxic concentration (CC50) was 5 µM with CCRF-CEM and 16 µM in the series on CRL7065. In the series on HIV-1 IIIB, the EC50 is over 7.3 µM.
In turn, `O=[N+]([O-])c1cc(NC(=S)Nc2ccc(Cl)cc2Cl)ccc1Cl` [Compound 12] returned a CC50 with MT-4 cells of 8 µM. Further, in the series on HIV-1 IIIB, the EC50 was over 8 µM.
For the molecule `Cc1ccc(Cl)cc1NC(=S)Nc1ccc(Cl)c([N+](=O)[O-])c1` [Compound 14], the 50% cytotoxic concentration (CC50) in the series with MT-4 cells worked out at 8.2 µM; with SK-MEL-28 it was 9 µM; in the series with DU145, 7.8 µM; with CCRF-SB it was 9.8 µM; with MT-4 it was 8.2 µM; in the series with WIL-2NS it was 10 µM. For the same molecule, the half-maximal cytotoxic concentration (CC50) in the series with CCRF-CEM worked out at 9.4 µM; in the series on CRL7065, 18 µM. The concentration for a half-maximal effect (EC50) with HIV-1 IIIB is over 8.2 µM.
Consider `O=[N+]([O-])c1cc(NC(=S)Nc2cccc(C(F)(F)F)c2)ccc1Cl` [Compound 15], for which, in the series with MT-4 cells, half-maximal cytotoxicity (CC50) was put at 8 µM. Further, the EC50 in the series on HIV-1 IIIB was over 8 µM.
In the series with MT-4 cells, `O=[N+]([O-])c1cc(NC(=S)Nc2ccc(C(F)(F)F)cc2)ccc1Cl` [Compound 16] registered a half-maximal cytotoxic concentration (CC50) of 7 µM. Further, in the series on HIV-1 IIIB, the concentration giving a half-maximal response (EC50) was over 7 µM.
As to `O=[N+]([O-])c1cc(NC(=S)Nc2ccc(I)cc2)ccc1Cl` [Compound 17], the half-maximal cytotoxic concentration (CC50) in the series with MT-4 cells came out at 7.8 µM; in the series on SK-MEL-28, 6 µM; with DU145, 11 µM; in the series on CCRF-SB, 8.3 µM; in the series on MT-4, 7.8 µM; in the series with WIL-2NS, 7 µM. For the same molecule, the CC50 in the series with CCRF-CEM is 6 µM; in the series on CRL7065, 30 µM. Further, the concentration for a half-maximal effect (EC50) in the series on HIV-1 IIIB is over 7.8 µM.
In the series on MT-4 cells, `O=[N+]([O-])c1ccc(NC(=S)Nc2ccc(Cl)c([N+](=O)[O-])c2)cc1` [Compound 18] returned a 50% cytotoxic concentration (CC50) of 7 µM. Further, the EC50 with HIV-1 IIIB is over 7 µM.
As for `N#Cc1ccc(NC(=S)Nc2ccc(Cl)c([N+](=O)[O-])c2)cc1` [Compound 19], the CC50 worked out at 8.2 µM with MT-4 cells; 9 µM in the series with SK-MEL-28; 8 µM in the series with DU145; 9.2 µM in the series with CCRF-SB; 8.2 µM in the series on MT-4; 10 µM in the series with WIL-2NS. The figures for the CC50 in the series on CCRF-CEM and with CRL7065 were 9.1 µM and 20 µM, respectively. Besides, in the series with HIV-1 IIIB, the 50% effective concentration (EC50) is over 8.2 µM.
In turn, `CC(NC(=S)Nc1ccc(Cl)c([N+](=O)[O-])c1)c1ccccc1` (stereo not shown) [Compound 26] gave a half-maximal cytotoxic concentration (CC50) with MT-4 cells of 16.7 µM. The EC50 with HIV-1 IIIB is over 16.7 µM.
The molecule `O=C1Nc2ccc(Cl)cc2[C@@](C#CC2CC2)(C(F)(F)F)O1` [Efavirenz, reference compound] showed a 50% cytotoxic concentration (CC50) at 96 h in series [1] of 46 µM. Also, the EC50 in the series on HIV-1 IIIB (Human immunodeficiency virus 1, IIIB, MT4, 96 h) was found to be 0.002 µM.
